Assay results taken from ChEMBL document CHEMBL5543162, “Discovery of a Novel Orally Bioavailable FLT3-PROTAC Degrader for Efficient Treatment of Acute Myeloid Leukemia and Overcoming Resistance of FLT3 Inhibitors” (J Med Chem, 2024).
The source made the active and inactive calls. No cut-off for these calls is given here.

Assays:
MOLM-13 [1] = assay: Antiproliferative activity against Quizartinib-resistant human MOLM-13 cells incubated for 48 hrs by CCK8 assay; assay type: functional, cell-based; details: MOLM-13, 48 h
MOLM-13 [2] = assay: Antiproliferative activity against Sunitinib-resistant human MOLM-13 cells incubated for 48 hrs by CCK8 assay; assay type: functional, cell-based; details: MOLM-13, 48 h
MOLM-13 [3] = assay: Antiproliferative activity against human MOLM-13 cells incubated for 48 hrs by CCK8 assay; assay type: functional, cell-based; details: MOLM-13, 48 h
MV4-11 [4] = assay: Antiproliferative activity against human MV4-11 cells expressing FLT3-ITD mutant incubated for 48 hrs by CCK8 assay; assay type: functional, cell-based; details: MV4-11, 48 h
MV4-11 [5] = assay: Induction of apoptosis in human MV4-11 cells at 50 nM incubated for 24 hrs by Annexin V-FITC/PI staining based flow cytometry; assay type: functional, cell-based
MOLM-13 [6] = assay: Induction of apoptosis in human MOLM-13 cells at 50 nM incubated for 24 hrs by Annexin V-FITC/PI staining based flow cytometry; assay type: functional, cell-based
[7] = system: Protein cereblon/Receptor-type tyrosine-protein kinase FLT3 (Homo sapiens), P36888+Q96SW2 [UNDEFINED MUTATION]; assay: PROTAC activity at CRBN/FLT3-ITD mutant in human MOLM-13 cells assessed as protein degradation at 100 nM incubated for 8 hrs by Western blot analysis; assay type: cell-based
Sequence of Protein cereblon/Receptor-type tyrosine-protein kinase FLT3 (Homo sapiens), P36888+Q96SW2 [UNDEFINED MUTATION] (P36888 whole entry, looked up, stated change not applied): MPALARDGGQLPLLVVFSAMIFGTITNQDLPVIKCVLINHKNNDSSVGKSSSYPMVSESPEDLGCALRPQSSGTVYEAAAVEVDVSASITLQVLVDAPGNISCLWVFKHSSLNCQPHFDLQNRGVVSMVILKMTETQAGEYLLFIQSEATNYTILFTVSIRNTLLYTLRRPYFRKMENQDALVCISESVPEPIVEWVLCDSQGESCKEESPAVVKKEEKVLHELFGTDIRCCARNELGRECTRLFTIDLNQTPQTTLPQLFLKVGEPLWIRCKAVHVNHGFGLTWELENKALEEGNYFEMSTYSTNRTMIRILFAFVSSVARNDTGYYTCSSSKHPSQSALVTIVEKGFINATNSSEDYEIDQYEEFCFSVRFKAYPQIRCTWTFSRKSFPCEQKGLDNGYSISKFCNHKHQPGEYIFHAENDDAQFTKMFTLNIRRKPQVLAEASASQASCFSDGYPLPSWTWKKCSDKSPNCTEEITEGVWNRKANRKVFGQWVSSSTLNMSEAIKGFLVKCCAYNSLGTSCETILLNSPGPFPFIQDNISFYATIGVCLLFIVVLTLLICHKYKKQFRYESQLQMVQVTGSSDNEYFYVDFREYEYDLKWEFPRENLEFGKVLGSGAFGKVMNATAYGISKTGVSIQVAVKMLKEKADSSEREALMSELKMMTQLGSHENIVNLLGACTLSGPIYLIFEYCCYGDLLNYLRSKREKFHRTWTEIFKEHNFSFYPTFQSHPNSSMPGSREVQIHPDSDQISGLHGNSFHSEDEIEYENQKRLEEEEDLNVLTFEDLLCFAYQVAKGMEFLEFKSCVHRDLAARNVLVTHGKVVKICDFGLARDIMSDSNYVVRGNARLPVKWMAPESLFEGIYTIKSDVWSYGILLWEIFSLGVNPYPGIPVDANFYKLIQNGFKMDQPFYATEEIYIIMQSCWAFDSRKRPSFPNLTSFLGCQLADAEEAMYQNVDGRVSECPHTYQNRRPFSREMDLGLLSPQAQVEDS
Sequence of Protein cereblon/Receptor-type tyrosine-protein kinase FLT3 (Homo sapiens), P36888+Q96SW2 [UNDEFINED MUTATION] (Q96SW2 whole entry, looked up, stated change not applied): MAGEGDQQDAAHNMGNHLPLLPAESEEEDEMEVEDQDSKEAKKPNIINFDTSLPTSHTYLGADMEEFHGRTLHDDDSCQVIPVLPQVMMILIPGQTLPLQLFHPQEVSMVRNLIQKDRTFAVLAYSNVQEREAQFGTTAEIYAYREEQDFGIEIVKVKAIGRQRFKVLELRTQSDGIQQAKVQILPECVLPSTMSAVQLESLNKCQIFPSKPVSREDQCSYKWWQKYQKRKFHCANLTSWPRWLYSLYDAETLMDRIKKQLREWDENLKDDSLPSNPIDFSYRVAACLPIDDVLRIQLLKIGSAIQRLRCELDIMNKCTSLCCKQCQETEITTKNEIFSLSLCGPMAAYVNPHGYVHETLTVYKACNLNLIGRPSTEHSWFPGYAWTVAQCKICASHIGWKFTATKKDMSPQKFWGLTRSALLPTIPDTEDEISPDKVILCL

[8] = system: Protein cereblon/Receptor-type tyrosine-protein kinase FLT3 (Homo sapiens), P36888+Q96SW2 [UNDEFINED MUTATION]; assay: PROTAC activity at CRBN/FLT3-ITD mutant in human MV4-11 cells assessed as protein degradation at 100 nM incubated for 8 hrs by Western blot analysis; assay type: cell-based
MV4-11 [9] = assay: Antitumor activity against human MV4-11 cells xenografted in nu/nu mouse at 1.6 mg/kg, po administered daily for 2 weeks relative to control; assay type: functional; details: MV4-11, 336 h, read-out: TGI
[10] = Stability in dog liver microsomes assessed as hepatic clearance; assay type: ADME, Canis lupus familiaris, Microsome
[11] = Stability in rat liver microsomes assessed as intrinsic clearance; assay type: ADME, Microsome; details: read-out: CLH
[12] = Stability in dog liver microsomes assessed as half life; assay type: ADME, Canis lupus familiaris, Microsome
[13] = Stability in human liver microsomes assessed as half life; assay type: ADME, Microsome
[14] = Antiproliferative activity against human U-937 cells expressing wild-type FLT3 incubated for 48 hrs by CCK8 assay; assay type: toxicity, cell-based
[15] = Stability in monkey liver microsomes assessed as half life; assay type: ADME, Microsome; details: chlorocebus aethiops
[16] = Stability in rat liver microsomes assessed as hepatic clearance; assay type: ADME, Microsome
[17] = Stability in monkey liver microsomes assessed as hepatic clearance; assay type: ADME, Microsome; details: chlorocebus aethiops
[18] = Stability in human liver microsomes assessed as intrinsic clearance; assay type: ADME, Microsome; details: read-out: CLH
[19] = Antiproliferative activity against human HL-60 cells expressing wild-type FLT3 incubated for 48 hrs by CCK8 assay; assay type: toxicity, cell-based
[20] = Stability in dog liver microsomes assessed as intrinsic clearance; assay type: ADME, Canis lupus familiaris, Microsome; details: read-out: CLH
[21] = Stability in rat liver microsomes assessed as half life; assay type: ADME, Microsome
[22] = Antiproliferative activity against human THP-1 cells expressing wild-type FLT3 incubated for 48 hrs by CCK8 assay; assay type: toxicity, cell-based
[23] = Stability in mouse liver microsomes assessed as half life; assay type: ADME, Microsome
[24] = Stability in mouse liver microsomes assessed as hepatic clearance; assay type: ADME, Microsome
[25] = Stability in monkey liver microsomes assessed as intrinsic clearance; assay type: ADME, Microsome; details: chlorocebus aethiops, read-out: CLH
[26] = Stability in human liver microsomes assessed as hepatic clearance; assay type: ADME, Microsome
[27] = Stability in mouse liver microsomes assessed as intrinsic clearance; assay type: ADME, Microsome; details: read-out: CLH

Compound `CC(C)(C)c1cc(NC(=O)Nc2ccc(-c3cn4c(n3)sc3cc(OCCN5CCOCC5)ccc34)cc2)no1` [QUIZARTINIB] has an IC50 (MOLM-13 [1]) of 40900 nM, an IC50 (MOLM-13 [2]) of 1230 nM and an IC50 (MOLM-13 [3]) of 39.4 nM. The IC50 (MV4-11 [4]) was 33.7 nM.
`Cc1ncsc1-c1ccc(CNC(=O)[C@@H]2C[C@@H](O)CN2C(=O)[C@H](NC(=O)CCCCCCCC(=O)N2CCN(CC(=O)Nc3c[nH]c(/C=C4\C(=O)Nc5ccc(F)cc54)c3C)CC2)C(C)(C)C)cc1` showed an IC50 (MOLM-13 [3]) greater than 1000 nM and an IC50 (MV4-11 [4]) of 191 nM.
With `Cc1c(NC(=O)CN2CCN(CC3CCN(c4ccc5c(c4)C(=O)N(C4CCC(=O)N(C)C4=O)C5=O)CC3)CC2)c[nH]c1/C=C1\C(=O)Nc2ccc(F)cc21` (stereo not drawn) the Activity (MV4-11 [5]) was “inactive”, the Activity (MOLM-13 [6]) was “inactive” and the Activity [7] was “inactive”. The Activity [8] was “inactive”.
`Cc1c(NC(=O)CN2CCN(C(=O)CCCCCCCNc3cccc4c3C(=O)N(C3CCC(=O)NC3=O)C4=O)CC2)c[nH]c1/C=C1\C(=O)Nc2ccc(F)cc21` (stereo not drawn) showed an IC50 (MOLM-13 [3]) of 220 nM and an IC50 (MV4-11 [4]) of 91.4 nM.
Work on `Cc1c(NC(=O)CCN2CCCC2)c[nH]c1/C=C1\C(=O)Nc2ccc(F)cc21` yielded an inhibition in vivo at 1.6 mg/kg (MV4-11 [9]) of 39.8%, a CLhep predicted [10] of 12.9 mL/min/kg and a CLint scaled [11] of 41 mL/min/kg. The half-life [12] was 1.5 h, the half-life [13] was 3.21 h and the IC50 at 48 h [14] was 2780 nM. It also gave a half-life [15] of 0.983 h, a CLhep predicted [16] of 27.7 mL/min/kg and a CLhep predicted [17] of 18.4 mL/min/kg. For the same compound, the CLint scaled [18] was 8.32 mL/min/kg, the IC50 (MOLM-13 [1]) was 1520 nM and the IC50 at 48 h [19] was 6450 nM. The CLint scaled [20] was 22.1 mL/min/kg, the half-life [21] was 1.01 h and the IC50 at 48 h [22] was 1500 nM. For the same compound, the IC50 (MOLM-13 [2]) was 811 nM, the half-life [23] was 0.758 h and the CLhep predicted [24] was 51.4 mL/min/kg. For the same compound, the CLint scaled [25] was 31.7 mL/min/kg, the IC50 (MV4-11 [4]) was 24 nM and the CLhep predicted [26] was 5.93 mL/min/kg. The CLint scaled [27] was 120 mL/min/kg.
Work on `Cc1c(NC(=O)CN2CCN(C(=O)CCCCCC(=O)NCCNc3cccc4c3C(=O)N(C3CCC(=O)NC3=O)C4=O)CC2)c[nH]c1/C=C1\C(=O)Nc2ccc(F)cc21` (stereo not drawn) yielded an IC50 (MOLM-13 [3]) of 487 nM and an IC50 (MV4-11 [4]) of 168 nM.
Compound `Cc1c(NC(=O)CN2CCN(CC3CCN(c4cccc5c4C(=O)N(C4CCC(=O)NC4=O)C5=O)CC3)CC2)c[nH]c1/C=C1\C(=O)Nc2ccc(F)cc21` (stereo not drawn) has an IC50 (MOLM-13 [3]) of 336 nM and an IC50 (MV4-11 [4]) of 194 nM.
In the case of `Cc1c(NC(=O)CN2CCN(CCCCCCCCC(=O)Nc3cccc4c3C(=O)N(C3CCC(=O)NC3=O)C4=O)CC2)c[nH]c1/C=C1\C(=O)Nc2ccc(F)cc21` (stereo not drawn), the IC50 (MOLM-13 [3]) is reported as 299 nM and the IC50 (MV4-11 [4]) is reported as 231 nM.
With `Cc1c(NC(=O)CN2CCN(C(=O)CCOCCNc3cccc4c3C(=O)N(C3CCC(=O)NC3=O)C4=O)CC2)c[nH]c1/C=C1\C(=O)Nc2ccc(F)cc21` (stereo not drawn) the IC50 (MOLM-13 [3]) was 542 nM and the IC50 (MV4-11 [4]) was 326 nM.
With `Cc1c(NC(=O)CN2CCN(C(=O)CCCCCCCCCCNc3cccc4c3C(=O)N(C3CCC(=O)NC3=O)C4=O)CC2)c[nH]c1/C=C1\C(=O)Nc2ccc(F)cc21` (stereo not drawn) the IC50 (MOLM-13 [3]) was 273 nM and the IC50 (MV4-11 [4]) was 193 nM.
Compound `Cc1c(NC(=O)CN2CCN(C(=O)CCCCCCCCC(=O)NCCNc3cccc4c3C(=O)N(C3CCC(=O)NC3=O)C4=O)CC2)c[nH]c1/C=C1\C(=O)Nc2ccc(F)cc21` (stereo not drawn) has an IC50 (MOLM-13 [3]) of 233 nM and an IC50 (MV4-11 [4]) of 214 nM.
With `Cc1ncsc1-c1ccc(CNC(=O)[C@H]2C[C@H](O)CN2C(=O)[C@@H](NC(=O)CCCCCCCCC(=O)N2CCN(CC(=O)Nc3c[nH]c(/C=C4\C(=O)Nc5ccc(F)cc54)c3C)CC2)C(C)(C)C)cc1` the IC50 (MOLM-13 [3]) was greater than 1000 nM and the IC50 (MV4-11 [4]) was 410 nM.
For `Cc1ncsc1-c1ccc(CNC(=O)[C@@H]2C[C@@H](O)CN2C(=O)[C@@H](NC(=O)CCCCCC(=O)N2CCN(CC(=O)Nc3c[nH]c(/C=C4\C(=O)Nc5ccc(F)cc54)c3C)CC2)C(C)(C)C)cc1`, the IC50 (MOLM-13 [3]) was greater than 1000 nM and the IC50 (MV4-11 [4]) was 216 nM.
`Cc1c(NC(=O)CN2CCN(C(=O)CCOCCOCCNc3cccc4c3C(=O)N(C3CCC(=O)NC3=O)C4=O)CC2)c[nH]c1/C=C1\C(=O)Nc2ccc(F)cc21` (stereo not drawn) showed an IC50 (MOLM-13 [3]) of 686 nM and an IC50 (MV4-11 [4]) of 201 nM.
Compound `Cc1c(NC(=O)CN2CCN(C(=O)CCOCCOCCNC(=O)COc3cccc4c3C(=O)N(C3CCC(=O)NC3=O)C4=O)CC2)c[nH]c1/C=C1\C(=O)Nc2ccc(F)cc21` (stereo not drawn) has an IC50 (MOLM-13 [3]) greater than 1000 nM and an IC50 (MV4-11 [4]) of 388 nM.
`Cc1c(NC(=O)CN2CCN(C3CN(c4ccc5c(c4)C(=O)N(C4CCC(=O)NC4=O)C5=O)C3)CC2)c[nH]c1/C=C1\C(=O)Nc2ccc(F)cc21` (stereo not drawn) showed an IC50 (MOLM-13 [3]) of 367 nM and an IC50 (MV4-11 [4]) of 170 nM.
With `Cc1c(NC(=O)CN2CCN(C(=O)CCCCCCNc3cccc4c3C(=O)N(C3CCC(=O)NC3=O)C4=O)CC2)c[nH]c1/C=C1\C(=O)Nc2ccc(F)cc21` (stereo not drawn) the IC50 (MOLM-13 [3]) was 206 nM and the IC50 (MV4-11 [4]) was 141 nM.
